We go through two compounds from US20220396577A1, “NOVEL SUBSTITUTED 1,3-8-TRIAZASPIRO[4,5] DECANE-2,4-DIONE COMPOUNDS AS INDOLEAMINE 2,3-DIOXYGENASE (IDO) AND/OR TRYPTOPHAN 2,3-DIOXYGENASE (TDO) INHIBITORS” (Merck Sharp & Dohme LLC, priority 2019, published 2022).

The target of one assay is T1, SGK2 (Homo sapiens, UniProt Q9HBY8).
T1 sequence (Q9HBY8 1-367): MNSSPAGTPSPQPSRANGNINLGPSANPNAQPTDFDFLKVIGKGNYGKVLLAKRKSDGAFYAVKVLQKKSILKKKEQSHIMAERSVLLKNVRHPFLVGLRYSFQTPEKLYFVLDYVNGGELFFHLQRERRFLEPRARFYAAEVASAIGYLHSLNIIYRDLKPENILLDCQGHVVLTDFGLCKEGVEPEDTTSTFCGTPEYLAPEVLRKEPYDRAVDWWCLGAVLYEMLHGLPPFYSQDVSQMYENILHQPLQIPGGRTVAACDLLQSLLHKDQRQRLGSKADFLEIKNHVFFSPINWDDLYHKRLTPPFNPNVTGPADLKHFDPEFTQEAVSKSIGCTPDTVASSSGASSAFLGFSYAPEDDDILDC
The assay can be described thus: Off-target kinase panel, ZLYTE: SGK2. It is filed as biochemical. The settings on record: read-out: Estimated IC50 (uM) SGK2. An excerpt:
The activity data was obtained in a panel of 265 and 264 for compounds 1-1 and CC-1, respectively, using the ZLYTE and ADAPTA assay methods indicated in the table below.
The ZLYTE biochemical assay employs a fluorescence-based, coupled-enzyme format and is based on the differential sensitivity of phosphorylated and non-phosphorylated peptides to proteolytic cleavage. The peptide substrate is labeled with two fluorophores—one at each end—that make up a Fluorescence Resonance Energy Transfer (FRET) pair.
In the primary reaction, the kinase transfers the gamma-phosphate of ATP to a single tyrosine, serine or threonine residue in a synthetic FRET-peptide. In the secondary reaction, a site-specific protease recognizes and cleaves non-phosphorylated FRET-peptides. Phosphorylation of FRET-peptides suppresses cleavage by the Development Reagent. […] A ratiometric method, which calculates the ratio (the Emission Ratio) of donor emission to acceptor emission after excitation of the donor fluorophore at 400 nm, is used to quantitate reaction progress, as shown in the equation below. […]
Both cleaved and uncleaved FRET-peptides contribute to the fluorescence signals and therefore to the Emission Ratio. The extent of phosphorylation of the FRET-peptide can be calculated from the Emission Ratio. […]
10. Read on fluorescence plate reader and analyze the data.

Another assay deals with IDO1 (Homo sapiens, UniProt P14902). In words: IDO1 Cellular Assay in HeLa Cells Stimulated with IFNγ (B). It is filed as cell-based. On the set-up: endogenous in cells; host or cells: HeLa cells stimulated with IFNγ. The settings on record: about 48 h, first value of cell, read-out: IDO hela (B) cell IC50. The procedure:
HeLa cells were cultured in complete HeLa culture medium (90% EMEM, 10% heat-inactivated fetal bovine serum) and expanded to about 1×10^9 cells. The cells were then collected and frozen down at 1×10^7 cells/vial in 1 mL frozen medium (90% complete HeLa culture medium, 10% DMSO).
Compounds to be tested were serially diluted in ten 3-fold steps in DMSO starting from 10 mM DMSO stocks in Echo low volume plate(s). Compound dilutions or DMSO alone were then dispensed from the dilution plate(s) into Greiner black 384-well assay plate(s) (catalog #781086, 50 nL/well) using an Echo 550 acoustic liquid handler (Labcyte).
Frozen HeLa cells were thawed and transferred into HeLa assay medium (99% complete HeLa culture medium, 1% Pen/Strep) with 20 mL medium/vial of cells. […] The cells were then counted and adjusted to a density of 2×10^5 cells/mL in HeLa assay medium. […]
HeLa cells with and without IFNγ were dispensed to the respective wells of 384-well assay plates containing the compounds. […] The resulting fluorescence was measured in a Spectramax plate reader (Molecular Devices) with a 400 nm excitation filter and a 510 nm emission filter.
The fluorescence intensity of each well was corrected for the background observed in wells with non-IFNγ-treated cells and was expressed as a fraction of the intensity observed in wells of IFNγ-treated cells and DMSO only. […]

IDO1, sequence (P14902 whole entry): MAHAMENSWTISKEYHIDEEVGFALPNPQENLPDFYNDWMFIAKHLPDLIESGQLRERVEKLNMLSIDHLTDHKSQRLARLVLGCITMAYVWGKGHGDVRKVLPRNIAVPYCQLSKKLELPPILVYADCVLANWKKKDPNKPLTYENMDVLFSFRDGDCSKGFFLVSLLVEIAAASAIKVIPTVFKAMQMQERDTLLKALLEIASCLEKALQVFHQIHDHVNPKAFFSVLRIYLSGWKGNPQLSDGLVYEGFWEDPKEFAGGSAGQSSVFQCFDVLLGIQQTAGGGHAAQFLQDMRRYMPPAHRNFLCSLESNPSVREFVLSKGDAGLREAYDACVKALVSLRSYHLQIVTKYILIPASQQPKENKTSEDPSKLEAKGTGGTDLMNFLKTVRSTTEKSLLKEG

The IC50 is the point on the concentration scale where inhibition reaches its midpoint. For `O=C1NC(=O)C2(CCN(c3cc(Cl)cc4[nH]ncc34)CC2)N1` [CC-1], the IC50 at SGK2 was 1.3 µM; on IDO1, 0.097 µM.

For the compound `C[C@@H]1CN(c2cc(Br)cc3[nH]ncc23)CC[C@]12NC(=O)NC2=O` (single isomer, unassigned) [Compound 1-1], the IC50 was > 2 µM on SGK2 and 0.077 µM at IDO1.
